row,melting point [°C],Structure (SMILES)
1,166 to 168,CNC(=O)c1ccc([N+](=O)[O-])cc1Cl
2,279 to 281,O=C(O)c1ccc(=O)n(-c2cccc(Br)c2)c1
3,121 to 123,CCC(=O)Nc1ccc(C)c(N)c1
4,173 to 175,CN(C)CCOc1cc(C(=O)O)ccn1
5,155 to 159,COc1cc(C(=O)O)cc(OC)c1OCc1ccccc1
6,51 to 53,N#CCC(=O)c1ccc(F)c(C(F)(F)F)c1
7,59 to 61,CC(=O)N1CCCc2cc(Br)ccc21
8,104 to 106,Cc1ccc(Cl)c2ccc(N)nc12
9,115 to 117,O=C(O)CN(Cc1ccco1)c1cccc(Cl)c1
10,70 to 72,CCOc1ccccc1CCC(=O)O
11,109 to 111,O=C(O)c1nc(OCC2CC2)c2ccccc2n1
12,61 to 63,O=Cc1ccc(OCCBr)c(Cl)c1
13,132 to 134,O=C(c1ccc(Cl)nc1)N1CCc2ccccc21
14,218 to 220,COc1ccc(C(=O)O)cc1S(=O)(=O)N1CCOCC1
15,93 to 95,CCNC(=O)c1ccccc1N
16,109 to 111,Brc1ccc(-c2ncno2)cc1
17,180 to 182,O=c1c2cc(Cl)ccc2nc2n1CCC2
18,90 to 92,CC(C)(C)OC(=O)N1CCCc2ccc(N)cc21
19,127 to 129,O=C(O)CCOc1ccc(Cl)cc1[N+](=O)[O-]
20,229 to 231,NNC(=O)Nc1c(Cl)cc(Cl)cc1Cl
21,144 to 146,Clc1ncnc2c1oc1ccccc12
22,149 to 151,Cc1cc2ncc(C=O)cn2n1
23,95 to 99,Cn1c(=O)cc(N)n(Cc2ccccc2)c1=O
24,143 to 145,O=S(=O)(c1ccc(Cl)nc1)N1CCOCC1

row,melting point [°C],Structure (SMILES)
1,79 to 81,Nc1ccc(OCc2cccnc2)cc1
2,52 to 54,N#Cc1ccc(Cl)cc1NCC1CC1
3,99 to 101,CCN(CC)S(=O)(=O)c1ccc(Cl)c(S(=O)(=O)Cl)c1
4,217 to 219,O=C(O)c1csc(COc2ccc(Cl)cc2)n1
5,109 to 111,Nc1ccc(S(=O)(=O)C(F)(F)F)cc1N
6,192 to 194,Cc1ccc(S(N)(=O)=O)cc1C(N)=O
7,219 to 221,Nc1nc(-c2ccc(Cl)cc2)n[nH]1
8,133 to 135,Cc1[nH]c2ccccc2c1C(=O)C(C)Cl (stereo not drawn)
9,203 to 205,Cc1ccc2c(c1)c(=O)n(C)c1nnc(CCl)n21
10,70 to 72,O=[N+]([O-])c1cc(Cl)ccc1NC1CC1
11,182 to 184,COc1ccc(C(=O)O)c(I)c1
12,214 to 216,O=C(O)CC1C(=O)Nc2ccccc21 (stereo not drawn)
13,115 to 117,CN(CC(=O)Nc1ccccc1Cl)C(=O)CCl
14,70 to 72,CCCCNc1nc2ccc(C)cc2s1
15,70 to 72,CC(C)(C)c1ccc(-c2ccc(C=O)o2)cc1
16,155 to 157,CC(=O)Nc1ccc(Br)cc1N
17,119 to 121,O=C1CCCc2cc(Br)ccc2N1
18,123 to 125,O=C(Nc1ccccc1)c1cccc(CCl)c1
19,144 to 146,NC(=NOC(=O)CCCCl)c1cccs1
20,161 to 163,O=C(O)CSc1nnc(-c2ccc(Cl)cc2Cl)[nH]1
21,197 to 199,COc1cc(C(=O)O)cc(Br)c1O
22,140 to 142,O=C(O)COc1ccc(F)cc1Cl
23,134 to 136,Cc1ccc([N+](=O)[O-])c(OCCC(=O)O)c1

# Second part, the molecule before the results:
row,Structure (SMILES),melting point [°C]
1,NC(CC1CCOC1)C(=O)O (stereo not drawn),269 to 271
2,CC1(c2ccc(S(C)(=O)=O)cc2)NC(=O)NC1=O (stereo not drawn),228 to 230
3,O=c1cnc2ccccc2n1CCS(=O)(=O)F,145 to 147
4,Nc1cccc(CN2CCC(O)CC2)c1,146 to 148
5,COC(=O)c1cc(SC(=O)N(C)C)c(OC)cc1[N+](=O)[O-],139 to 141
6,COc1cc(C)c(CSCC(=O)O)cc1OC,63 to 65
7,C=CC(=O)NCc1cnc(C)s1,111 to 113
8,Cc1nn(C)c(C)c1CC(=O)N1CCC(C(=O)O)CC1,167 to 169
9,CC(=O)Nc1nc(CCl)cs1,159 to 161
10,Sc1nnc(CCc2ccccc2)o1,92 to 94
11,Cc1ccc(C)c(-n2ncc(N)c2C)c1,62 to 64
12,Nc1n[nH]c2ccccc12,152 to 154
13,O=C(O)C1CC12CCOc1ccccc12 (stereo not drawn),159 to 161
14,Nc1ccc(CN2CCN(Cc3ccccc3)CC2)cc1,96 to 98
15,NC1CCCS(=O)(=O)c2ccccc21 (stereo not drawn),115 to 117
16,NC(=O)CO,124 to 126
17,O=C(O)C1=COCCO1,164 to 166
18,O=C1CN(c2ccccc2)CCCN1,191 to 193
19,ClCc1nc(Cl)c2c3c(sc2n1)CCCC3,89 to 91
20,O=C(O)c1cnn(Cc2ccccc2Cl)c1,144 to 146
21,CCOC(=O)c1ccc2nc(CCC(=O)O)c(=O)n(CC)c2c1,181 to 185
22,COc1ccc(CNc2nnc(S)s2)cc1,137 to 139
23,NC(=NO)c1ccc(O)cc1,152 to 156
24,Sc1nnc(C2CC2)n1Cc1ccco1,260 to 262

row,Structure (SMILES),melting point [°C]
1,CC(C)(C(=O)O)c1ccc(Br)cc1,123 to 125
2,NC(CSCCc1ccccc1)C(=O)O (stereo not drawn),210 to 212
3,NC(=S)Cc1ccccc1F,92 to 94
4,Cc1cc(C)c(C(=O)CCCC(=O)O)c(C)c1,75 to 77
5,Nc1ccc(S(=O)(=O)N2CCCC(C(=O)O)C2)cc1 (stereo not drawn),195 to 197
6,Cc1nc(-c2nnc[nH]2)sc1C(=O)O,286 to 288
7,CC(=O)CC(=O)CCN1C(=O)c2ccccc2C1=O,104 to 106
8,Cc1cc(Cl)c2cc(F)c(F)c(F)c2n1,73 to 75
9,COc1ccc(CN2CCN(C(=O)CCNC(=O)c3ccc(C(C)(C)C)cc3)CC2)cc1,102 to 104
10,N#CC1=C(N)CCC1,146 to 148
11,Cc1ccc(C)c(-c2nc(N)sc2C)c1,92 to 94
12,COc1ccc(-c2nc(CN)cs2)cc1,67 to 69
13,CN1CCN(C(=O)C2CCN(C(=O)OC(C)(C)C)CC2)CC1,95 to 97
14,CC(C)n1cc(Br)cc1C(=O)O,148 to 150
15,CC(C)CN(C(=O)CCl)c1c(N)n(CC(C)C)c(=O)[nH]c1=O,153 to 155
16,Cc1cc(NC(=O)OCC(F)(F)F)n(C)n1,100 to 102
17,COc1cc([N+](=O)[O-])cc2sc(N)nc12,279 to 281
18,NCCCc1nc(C2CC2)n[nH]1,207 to 209
19,NC(=O)c1cc(N)c(F)cc1F,169 to 171
20,CC(=O)c1cccc(N2CCCS2(=O)=O)c1,84 to 86
21,Cc1ccc(C(=O)Nc2ccc(O)cc2)cc1,208 to 210
22,COc1ccc(C2CCN2S(=O)(=O)c2ccc(C)cc2)cc1 (stereo not drawn),102 to 104
23,O=C(O)CCCN1C(=O)CCC1=O,102 to 104
24,O=C(O)C1CSC(c2ccsc2)N1 (stereo not drawn),144 to 146

row,Structure (SMILES),melting point [°C]
1,c1ccc(-c2nnco2)cc1,35 to 37
2,Fc1cccc(Cn2cc(Br)cn2)c1F,53 to 55
3,COC(=O)C(C)Nc1ccc([N+](=O)[O-])cc1 (stereo not drawn),99 to 101
4,Cn1cc(N2C(=O)C=CC2=O)cn1,151 to 153
5,Cc1cccc(-n2nc(C(C)(C)C)cc2N)c1,90 to 92
6,Nc1nc(-c2ccccc2)cn1N,258 to 260
7,CN(C)S(=O)(=O)c1cn[nH]c1,132 to 134
8,O=C1CCCC(C(F)(F)F)N1 (stereo not drawn),123 to 125
9,NNc1ccc(S(=O)(=O)Nc2ccc(Cl)cc2)cc1[N+](=O)[O-],187 to 189
10,O=C(CCl)NC1CS(=O)(=O)CC1Cl (stereo not drawn),181 to 190
11,CS(=O)(=O)c1cc(S(=O)(=O)Cl)c(Cl)s1,124 to 126
12,CC(C)(C(=O)O)c1ccc2ccccc2c1,146 to 148
13,CC(C)(C)c1ncc(N)cn1,119 to 121
14,CCOC(=O)c1ccncc1N,173 to 175
15,N#Cc1ccc(S(=O)(=O)N2CCC(C(=O)O)CC2)cc1,175 to 177
16,CCCCNC(=O)CC(N)=NO,95 to 99
17,O=C1c2ccccc2C(=O)N1Cc1ccnc2ccnn12,274 to 276
18,NC(=O)NCCc1cccs1,88 to 98
19,O=C(C=NO)Nc1cccc(C(F)(F)F)c1,115 to 117
20,O=C(O)c1cc(-c2cccnc2)on1,179 to 181
21,NS(=O)(=O)c1ccc(N2CCCC2=O)cc1,247 to 249
22,O=S(=O)(c1ccc(N=C=S)cc1)N1CCOCC1,99 to 101
23,Cc1ccc2c(O)c(C(=O)O)cnc2n1,279 to 281
24,CC(C)Cn1cnc(S(N)(=O)=O)c1,144 to 146

row,Structure (SMILES),melting point [°C]
1,O=C(O)CN(Cc1cccnc1)c1ccccc1,136 to 138
2,O=C(O)C1CC(O)CN1C(=O)C12CC3CC(CC(C3)C1)C2 (stereo not drawn),206 to 208
3,CCOC(=O)c1c(N)sc2c1CC(C)(C)NC2(C)C,95 to 97
4,Cn1cnnc1CN,32 to 34
5,Nc1cncc(Cl)c1Cl,97 to 99
6,O=C(O)c1ccc(-n2cncn2)c([N+](=O)[O-])c1,274 to 276
7,CCN(C)C(=O)c1cccc(C(=O)O)c1,102 to 104
8,Cn1c(=O)c2sccc2n2c(CCl)nnc12,244 to 246
9,Cc1nc2sccn2c1C=O,94 to 96
10,Nc1nnc(Cc2ccccc2F)o1,167 to 169
11,CC(C)(C)OC(=O)NC1(C(=O)O)CCOC(C)(C)C1 (stereo not drawn),176 to 178
12,c1ccc(-c2ccc3[nH]ccc3c2)cc1,74 to 76
13,Clc1cnc(Cl)nc1,55 to 57
14,O=C1NS(=O)(=O)c2ncccc21,199 to 201
15,CCOC(=O)/C(C#N)=C(\N)C(Cl)(Cl)Cl,94 to 96
16,CCc1nnc(CO)n1C,41 to 43
17,CC(C)N1C2CCCC1CC(O)C2 (stereo not drawn),59 to 61
18,Nc1cccc(CS(=O)C2CCCCC2)c1 (stereo not drawn),88 to 90
19,OC(c1ccccc1)c1nc(-c2ccccc2)no1 (stereo not drawn),97 to 99
20,Cc1cc(S(N)(=O)=O)c(C)cc1Br,207 to 209
21,Cc1cc(C(=O)O)c(N)s1,126 to 128
22,Cc1cc(N)c2cc(N)ccc2n1,212 to 214
23,N#Cc1cc(F)cc(CO)c1,59 to 61
24,Cc1cc2nc(-c3cccc4ncccc34)[nH]c2cc1C,129 to 131

# Reference: a melting point compilation (Tetko et al.)
